# Assay results taken from patent US6867207B2, “IL-5 inhibiting 6-azauracil derivatives” (Janssen Pharmaceutica N.V., priority 1997, dated 2005).
# Legend:
# IL-5 production = experiment: In vitro inhibition of IL-5 production in human blood (phytohemagglutinin-stimulated whole blood, ELISA);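 further: values marked with an asterisk were tested at 10 µM and unmarked values at 1 µM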; assay type: cell-based; details: test dose 1×10^−6 M, 48 hours, read-out: % inh. (percentage inhibition of IL-5 production)
# Outline: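 Percent inhibition of IL-5, quantified by ELISA in cell-free supernatants, is given at a single dose of 1×10^−6 M (or 1×10^−5 M). Threefold-diluted human whole blood from healthy men received compound for 60 min at 37° C before 48 h PHA stimulation at 2 μg/mL.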
melting point,SMILES,inhibition at 1 µM (IL-5 production)
170 °C,"NCc1sc(C(c2ccc(Cl)cc2)c2c(Cl)cc(-n3ncc(=O)[nH]c3=O)cc2Cl)nc1-c1ccccc1 (racemic) [Compound 329, (±)-2-[4-[[5-(aminomethyl)-4-phenyl-2-thiazolyl](4-chlorophenyl)methyl]-3,5-dichlorophenyl]-1,2,4-triazine-3,5(2H,4H)-dione]",88%
250 °C,"CN(C)Cc1sc(C(c2ccc(Cl)cc2)c2c(Cl)cc(-n3ncc(=O)[nH]c3=O)cc2Cl)nc1-c1ccccc1F (racemic) [Compound 325, (±)-2-[4-[(4-chlorophenyl)[5-[(dimethylamino)methyl]-4-(2-fluorophenyl)-2-thiazolyl]methyl]-3,5-dichlorophenyl]-1,2,4-triazine-3,5(2H,4H)-dione]",95%
128 °C,"O=c1cnn(-c2cc(Cl)c(C(c3ccc(Cl)cc3)c3nc(-c4ccccc4)no3)c(Cl)c2)c(=O)[nH]1 (racemic) [Compound 429, (±)-2-[3,5-dichloro-4-[(4-chlorophenyl)(3-phenyl-1,2,4-oxadiazol-5-yl)methyl]phenyl]-1,2,4-triazin-3,5(2H,4H)-dione]",78%
206 °C,"O=C(O)c1sc(C(c2ccc(Cl)cc2)c2c(Cl)cc(-n3ncc(=O)[nH]c3=O)cc2Cl)nc1-c1ccccc1 (racemic) [Compound 299, (±)-2-[(4-chlorophenyl)[2,6-dichloro-4-(4,5-dihydro-3,5-dioxo-1,2,4-triazin-2(3H)-yl)phenyl]-methyl]-4-phenyl-5-thiazolcarboxylic acid]",38%
